Results on two molecules are retold here after patent US20200179510A1, “LOW DENSITY LIPOPROTEIN RECEPTOR RELATED PROTEIN 5 INHIBITION SUPPRESSES TUMOR FORMATION” (YALE UNIVERSITY, priority 2017, published 2020).

Assay [1] has as its system Wnt reporter gene TOPFlash. Kind of assay: Wnt reporter gene (TOPFlash) assay in HEK293 cells. It is filed as cell-based. As to conditions: for Wnt reporter gene activity: DKK2 5 nM, Wnt3a 2 nM, CHIR 1 μM, 6 hrs (FIG. 10D). As to the method:
The Stat5 reporter assays were done in HEK293T cells for activated JAK1-induced activity or in those stably expressing JAK3, IL2/15Rβ and the common receptor γ subunit for IL15 induced activity. Cells were seeded at 8×10^4 cells per well in 48 well plate. The next day, cells were transfected by Lipofectamine 2000 (Invitrogen) with the pGL4.52-STAT5-Luciferase (Promega) and tagRFP (internal control) plasmids together with other plasmids expressing genes of interest. The total amount of plasmid was kept at 125 ng per well. The cells were added 24 hours after transfection with IL15/IL15Rα-Fc complex or mock. Six hours later, the cells were lysed and subjected to RFP fluorescence and luciferase luminescence measurement using an Envision Multilabel plate reader. The reporter gene activity is shown after being normalized against RFP readings. The LEF reporter assay was carried out in HEK293 cells that were transfected with the TOPFlash and GFP plasmids. The rest is the same as above. The reporter gene activity is shown after being normalized against GFP readings.
A functional mouse monoclonal anti-DKK2 antibody (5F8) was developed to specifically target and neutralize DKK2, but to not cross react with DKK-1. […] It has been shown that DKK2 as well as other DKK family proteins, inhibit canonical Wnt signaling by binding to Wnt co-receptor LRP 5/6 with high affinity and competing with Wnt molecules for receptor binding (MacDonald, B., et al., Dev Cell, 2009. 17(1): p. 9-26; Bao, J., et al., Sci Signal, 2012. 5(224): pe22). To determine if 5F8 diminished DKK2 inhibition of Wnt signaling, a Wnt reporter gene assay was used to measure Wnt activity. HEK293 cells were transfected with Wnt reporter gene TOPFlash and Wnt reporter activity was examined.
For orientation: In a reporter assay the amount or activity of a reporter protein is the signal.

Assay [2] concerns primary mouse NK cells. Description: IL-15-cultured primary mouse NK cells (flow cytometry, Western). It is filed as cell-based. As to conditions: for granzyme B in primary NK cells: WNT3a 2 nM, CHIR 1 μM. As to the method:
Cells in single cell suspension were fixed with 2% PFA (Santa-Cruz sc-281692). After washing with a Flow Cytometry Staining Buffer (eBioscience 00-4222-26), cells were stained with antibodies for cell surface markers for 1 hour on ice in the dark. For staining of intracellular proteins, the cells were washed and resuspended in the Permeabilization Buffer (BD 554723) and stained by antibodies in the Permeabilization Buffer for 1 hour on ice in the dark. The cells were then pelleted and resuspended in the Flow Cytometry Staining Buffer for flow cytometry analysis.
Mouse primary NK and CD8+ T cells were isolated from the spleens by using the NK cell and CD8+ T cell isolation kits according to the manufacturer's instructions (Miltenyi Biotec #130-090-864 and #130-104-075), respectively. Primary NK cells were cultured in RPMI-1640 (Gibco, 11875-093) supplemented with 10% FBS, penicillin (100 U/ml), streptomycin (100 μg/ml), 2-mercaptoethanol (500 μM) and HEPES (10 mM) at 37° C. supplemented with 5% CO2 in the presence of recombinant murine IL-15 (50 ng/ml) for 24 hours before treatment with DKK2, CHIR99021, or WNT3A. CD8+ T cells were cultured in the same culture medium and condition as NK cells, but supplemented with IL-15 (200 ng/ml) and IL-15 Rα (1 μg/ml recombinant Mouse IL-15 receptor alpha Fc chimera Protein from R&D) for 96 hours before DKK2 treatment. Mouse primary intraepithelial lymphocytes (IELs) were prepared as described in (Little et al., The Journal of Immunology 175, 6713-6722 (2005) and Li et al. Infect Immun 80, 565-574 (2012)). In brief, the small intestine was everted, divided into four pieces, and washed twice in phosphate-buffered saline (PBS) containing 100 U/ml penicillin/streptomycin The specimens were then incubated with stirring at 37° C. in prewarmed Ca2+ and Mg2+-free Hanks' solution containing 100 U/ml penicillin-streptomycin, 5% fetal calf serum (FCS), 2 mM dithiothreitol (DTT), and 5 mM EDTA for 30 min, followed by vigorous shaking for 30 s. The supernatants were passed over two nylon wool columns to remove undigested tissue debris. The lymphocytes obtained were pooled and enriched on a discontinuous (40% and 70%) Percoll density gradient. Cells at the interface between the 40% and […], fractions (IELs) were collected for treatment with IL-15 (200 ng/ml) and DKK2 (200 ng/ml), followed by flow analysis.

`Cc1c[nH]c(-c2cnc(NCCNc3ccc(C#N)cn3)nc2-c2ccc(Cl)cc2Cl)n1` [CHIR99021, reference compound]: the “Wnt reporter gene activity” value in assay [1] is on record as “strong effect on Wnt reporter gene activity”. Moreover, the “granzyme B in primary NK cells” value in assay [2] (24 hours) is reported as “no significant effect on granzyme B”.

For WNT3A, in assay [1], the “Wnt reporter gene activity” value is “a strong increase in the reporter gene activity”. Besides, the Wnt reporter activity entry in assay [1] (HEK293, TOPFlash, conditioned medium (FIG. 1E)) was “increased Wnt reporter activity”. The “β-catenin accumulation in LRP5-deficient NK cells” value in assay [2] (LRP5-deficiency) was “did not affect β-catenin accumulation”. Besides, the “β-catenin accumulation in LRP6-deficient NK cells” value in assay [2] (LRP6-deficient) was “did not induce β-catenin accumulation”. For the same molecule, in assay [2] (WNT3A 5 nM, 24 hours, Western), the “β-catenin accumulation in primary NK cells” value is given as “induced β-catenin accumulation”. In assay [2] (24 hours), the “granzyme B in primary NK cells” value is listed as “no significant effect on granzyme B expression”.
